Results on 59 molecules are retold here after PMC5607274, “An iterative compound screening contest method for identifying target protein inhibitors using the tyrosine-protein kinase Yes” (Scientific Reports, 2017).

SMILES strings stand for the structures.

This test has as its target T1, human recombinant Yes [a.a. 2–543 (end)] (Homo sapiens, UniProt P07947).
T1 construct: human recombinant Yes [a.a; 2–543 (end)]; purchased BPS Bioscience 40488
Kind of test: ADP-Glo kinase assay, inhibition rates of Yes phosphorylation activity (first and second screening). The format is biochemical. Particulars: 10 μmol L−1 compound; for First screening IR (inhibition rate): mean of n = 4 wells; for Second screening IR (inhibition rate): dissolved from fresh powder, n = 4. An outline of the steps:
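ADP-Glo luminescence measured inhibition of human recombinant Yes (a.a. 2–543) phosphorylation activity. In the first screen, each compound ran in 4 wells and inhibition rates were averaged. The second screen retested hits as compounds dissolved from fresh powder.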
(In general: ADP-Glo turns the ADP formed in a reaction into a luminescent signal.)

T1 sequence (P07947 2-543): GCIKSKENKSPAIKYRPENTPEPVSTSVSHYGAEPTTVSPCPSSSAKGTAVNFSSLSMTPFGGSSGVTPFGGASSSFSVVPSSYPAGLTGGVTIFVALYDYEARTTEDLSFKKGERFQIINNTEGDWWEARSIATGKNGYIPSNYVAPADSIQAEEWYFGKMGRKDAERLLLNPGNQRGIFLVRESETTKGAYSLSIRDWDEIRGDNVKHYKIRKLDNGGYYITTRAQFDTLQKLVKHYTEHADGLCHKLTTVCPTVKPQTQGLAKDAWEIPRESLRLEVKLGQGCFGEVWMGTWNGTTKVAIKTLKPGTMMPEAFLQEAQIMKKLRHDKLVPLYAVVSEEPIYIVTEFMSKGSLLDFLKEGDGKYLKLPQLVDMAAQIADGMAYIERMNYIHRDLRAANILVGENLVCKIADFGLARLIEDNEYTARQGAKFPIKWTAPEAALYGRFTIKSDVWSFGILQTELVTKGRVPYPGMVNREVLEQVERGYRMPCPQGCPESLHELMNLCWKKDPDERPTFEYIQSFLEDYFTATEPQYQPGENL

For `Nc1ncnc(Nc2ccccc2)n1` [Compound Z56768427], the “First screening IR (inhibition rate)” value turned out to be 16%. On to `CCN(CC)CCC1S(=O)(=O)CC(c2ccccc2)CS1(=O)=O` (stereo not shown) [Compound Z56768715], for which the “First screening IR (inhibition rate)” value stood at 8%. In the case of `CCN(CC)c1ccc(/C=C2\CCC(/C=N/NC(=O)NC3CCCCC3)=C2N2CCOCC2)cc1` [Compound Z56769590], the “First screening IR (inhibition rate)” value is recorded as -9%.

Take `Nc1c2c(nc3sc4c(c13)CCCC4)-c1ccccc1CC2` [Compound Z56772171]: the “First screening IR (inhibition rate)” value is -17%. Still for that read-out and setting: the result for `O=P(/C=C(\Cl)c1ccccc1)(/C=C(/Cl)c1ccccc1)Nc1cccc(S(=O)(=O)NCc2ccco2)c1` [Compound Z56773378] reads -1%; that for `CCOC(=O)/C(C#N)=C\C1=C2OC(c3ccccc3)=CC(c3ccccc3)=C2CCC1` [Compound Z56780975], -7%. On the same count and under the same terms, next, `COC(=O)/C(=C\C1=C2OC(c3ccccc3)=CC(c3ccccc3)=C2CCC1)C(C)=O` [Compound Z56781644]: 7%. With `CCN(CC)c1ccc2c(c1)OC(=O)N(c1ccc(Cl)c(Cl)c1)P2(=Nc1ccc(C)cc1)N(CC)CC` (stereo not shown) [Compound Z56783141], the “First screening IR (inhibition rate)” value is given as -2%. Take `Fc1ccc(/C=C2/CCCc3c2nc2ncnn2c3-c2ccc(F)cc2)cc1` [Compound Z56784264]: the “First screening IR (inhibition rate)” value was determined as 8%.

With `C(=C1\CCCc2c1nc1ncnn1c2-c1ccccc1)/c1ccccc1` [Compound Z56784273], the “First screening IR (inhibition rate)” value is 0%. Still for that read-out and setting: next, `Brc1ccc(/C=C2/CCCc3c2nc2ncnn2c3-c2ccc(Br)cc2)cc1` [Compound Z56784274]: 3%; `Clc1ccc(/C=C2/CCCc3c2nc2ncnn2c3-c2ccc(Cl)cc2)cc1` [Compound Z56784275]: -10%. Still for that read-out and setting: next, `CCOC(=O)c1c(NC(=O)c2ccc(C(C)(C)C)cc2)n(CCCN2CCOCC2)c2nc3ccccc3nc12` [Compound Z56786201]: 4%; `Nc1ncnc(Nc2ccc(Br)cc2)n1` [Compound Z56786772]: 24%.

As to `CCN(CC)c1ccc(C(=O)NC(=S)Nc2nc(-c3cccs3)cs2)cc1` [Compound Z56787522], the “First screening IR (inhibition rate)” value was -9%. The same measure, in the same setting: next, `Cc1ccc(-n2c(C)c(C=O)c3c2CCc2cn(-c4ccccc4)nc2-3)cc1` [Compound Z56788048]: -7%; `Cc1cc(C(=O)/C(C#N)=C2\C(=O)Nc3c(Cl)cc(Cl)cc32)c(C)n1-c1cccc(C(F)(F)F)c1` [Compound Z56789382]: -23%; `Cc1ccc2c(c1)/C(=N/n1cnc3ccccc31)C(=O)N2` [Compound Z56789395]: 3%. Still for that read-out and setting: the result for `CCOC(=O)c1c(N)n(CC(C)NC(=O)C2CC2)c2nc3ccccc3nc12` (stereo not shown) [Compound Z56790662] reads -2%; that for `Cc1cc(/C=N/Nc2nc(-c3ccc(F)cc3)cs2)c(C)n1-c1cc(Cl)ccc1Cl` [Compound Z56791351], -8%; that for `Cc1ccccc1Nc1ncnc(N)n1` [Compound Z56791580], 15%. As to `CC(C)(C)c1cc(-n2c(-c3cccnc3)nc3cc4c(cc32)OCCO4)cc(C(C)(C)C)c1O` [Compound Z56793119], the “First screening IR (inhibition rate)” value is on record as 6%. In the case of `Cc1cccc(C)c1OCc1nc2c3c(-c4ccccc4)c(-c4ccccc4)oc3ncn2n1` [Compound Z56793398], the “First screening IR (inhibition rate)” value was 20%. For `Clc1ccc(/C=N/Nc2ncnc3c2cnn3-c2ccccc2)cc1` [Compound Z56795594], the “First screening IR (inhibition rate)” value is on record as 13%. With `c1ccc(-c2nc3c4ccccc4c4ccccc4c3n2-c2ccccc2)cc1` [Compound Z56798059], the “First screening IR (inhibition rate)” value came out at 6%. In the case of `Clc1ccc(/C=C2/CCCc3c2nc2ncnn2c3-c2ccc(Cl)cc2Cl)c(Cl)c1` [Compound Z56798990], the “First screening IR (inhibition rate)” value came to 3%.

In the case of `Clc1ccccc1/C=C1\CCCc2c1nc1ncnn1c2-c1ccccc1Cl` [Compound Z56799005], the “First screening IR (inhibition rate)” value was determined as 6%. Same read-out and setting: the result for `COc1ccccc1Nc1ncnc(N)n1` [Compound Z56799636] reads -3%. As to `CCc1cccc(CC)c1NC(=O)COC(=O)CC1c2ccccc2CCN1S(=O)(=O)c1ccc(F)cc1` (stereo not shown) [Compound Z56803956], the “First screening IR (inhibition rate)” value turned out to be 27%.

As for `O=C(Nc1cc(C(F)(F)F)ccc1N1CCCCC1)c1ccc(Cl)c(S(=O)(=O)Nc2ccccc2C(=O)Nc2cc(C(F)(F)F)ccc2N2CCCCC2)c1` [Compound Z56805970], the “First screening IR (inhibition rate)” value is given as 44% and the “Second screening IR (inhibition rate)” value is given as -10%. In the case of `CN(C1CCS(=O)(=O)C1)S(=O)(=O)c1ccc(F)cc1` (stereo not shown) [Compound Z56813369], the “First screening IR (inhibition rate)” value was -5%. Same read-out and setting: the result for `O=C(Nc1ccc(C2(c3ccc(NC(=O)c4ccc(N5CCCCCC5)c([N+](=O)[O-])c4)cc3)CCCCC2)cc1)c1ccc(N2CCCCCC2)c([N+](=O)[O-])c1` [Compound Z56818449] reads -7%. The same measure, in the same setting: next, `CCc1ccc(-c2cc(-c3ccccc3)c3c(n2)/C(=C\c2ccc(N(C)C)cc2)CCC3)cc1` [Compound Z56830412]: -14%; `Cc1ccc(NC(=O)C(=O)c2c(-c3ccccc3)cc3ccccn23)cc1S(=O)(=O)N1CCOCC1` [Compound Z56835405]: -2%. The same measure, in the same setting: next, `Cc1cc(C)n(-c2nc(-c3cccnc3)nc3ccccc23)n1` [Compound Z56839033]: 12%. Consider `COc1cc(/C=N/Nc2nc(-c3ccncc3)nc3ccccc23)ccc1O` [Compound Z56841676], for which the “First screening IR (inhibition rate)” value was determined as 18%. Consider `Cc1cc(N=C2C(=O)Nc3c(Cl)cc(Cl)cc32)ccc1Br` [Compound Z56849070], for which the “First screening IR (inhibition rate)” value is 1%. Turning to `Brc1cccc(C2C=C(c3ccccc3)Nc3ncnn32)c1` (stereo not shown) [Compound Z56850769], the “First screening IR (inhibition rate)” value was 9%. On the same count and under the same terms, next, `COCCN1C(=O)/C(=C/c2c(N3CCN(Cc4ccccc4)CC3)nc3ccc(C)cn3c2=O)SC1=S` [Compound Z56850824]: -11%; `COc1ccc(CCNC(=O)C(C#N)c2nc3ccccc3nc2N2CCN(Cc3ccccc3)CC2)cc1` (stereo not shown) [Compound Z56851971]: 3%. The same measure, in the same setting: next, `Cn1nc([N+](=O)[O-])c2c(-c3nc4ccccc4n3C)c(N)n(C3CCCCC3)c2c1=O` [Compound Z56852588]: 5%; `CCN1CCN(c2nc3ccccc3nc2C(C#N)C(=O)NCCc2ccc(OC)c(OC)c2)CC1` (stereo not shown) [Compound Z56854281]: 38%. Turning to `N#CC(C(=O)NCc1ccc2c(c1)OCO2)c1nc2ccccc2nc1N1CCN(Cc2ccccc2)CC1` (stereo not shown) [Compound Z56854297], the “First screening IR (inhibition rate)” value is -7%. Still for that read-out and setting: next, `Nc1c(S(=O)(=O)c2ccccc2)c2nc3ccccc3nc2n1CCNC(=O)c1ccc(Cl)cc1` [Compound Z56854331]: 9%; `CCOC(=O)c1c(-c2ccc(C)cc2)csc1Nc1nc2ccccc2nc1N1CCN(CC)CC1` [Compound Z56854384]: -3%; `COc1ccc(-n2nnc3c4c(c(Nc5ccc(C)cc5)cc32)C(=O)c2ccccc2C4=O)cc1` [Compound Z56857970]: 7%.

Take `COc1ccc(Nc2cc3c(nnn3-c3ccc(C)cc3)c3c2C(=O)c2ccccc2C3=O)cc1` [Compound Z56857974]: the “First screening IR (inhibition rate)” value was 2%. Consider `CN(C)S(=O)(=O)c1cc(S(=O)(=O)c2ccc(Cl)c(S(=O)(=O)N(C)C)c2)ccc1Cl` [Compound Z56862791], for which the “First screening IR (inhibition rate)” value is recorded as 1%. Still for that read-out and setting: next, `Cc1cc(=O)[nH]c(SCC(=O)c2ccc3c(c2)NC(=O)CO3)n1` [Compound Z56863397]: -14%; `Cc1cccc(C)c1N=C1SC(C(=O)Nc2ccc(OC(F)F)cc2)C(N)=C1C(=O)N1CCN(C)CC1` (stereo not shown) [Compound Z56863426]: 15%; `CCCCC(CC)CN1C(=O)/C(=C/c2c(NCCCn3ccnc3)nc3c(C)cccn3c2=O)SC1=S` (stereo not shown) [Compound Z56863942]: 0%. For `CCCCCCCCN1C(=O)/C(=C/c2c(NCCCN3CCOCC3)nc3c(C)cccn3c2=O)SC1=S` [Compound Z56863983], the “First screening IR (inhibition rate)” value is given as 0%. The same measure, in the same setting: next, `O=C(NC1(C(F)(F)F)Oc2ccccc2O1)Sc1ccccc1` [Compound Z56864837]: 42%; `COc1ccc(/C(O)=C2\C(=O)C(=O)N(CCN3CCNCC3)C2c2cccc(Oc3ccccc3)c2)cc1` (stereo not shown) [Compound Z56865657]: 6%. The same measure, in the same setting: next, `Cc1cc(/C(O)=C2\C(=O)C(=O)N(CCN3CCOCC3)C2c2ccc(F)cc2)ccc1OCC(C)C` (stereo not shown) [Compound Z56865693]: -1%. Same read-out and setting: the result for `CCOC(=O)c1c(Nc2nc3ccccc3nc2N2CCN(Cc3ccccc3)CC2)sc(C)c1C` [Compound Z56866112] reads 2%. `COC(=O)c1c(Nc2nc3ccccc3nc2N2CCN(C/C=C/c3ccccc3)CC2)sc(C)c1C` [Compound Z56867786]: the “First screening IR (inhibition rate)” value is listed as 11%. The same measure, in the same setting: next, `O=S(=O)(c1cccc(-c2n[nH]c(-c3ccccc3)c2-c2nc3ccccc3[nH]2)c1)N1CCCC1` [Compound Z56870429]: -20%. As to `COc1ccc(CCn2c(N)c(C(=O)NCc3ccc4c(c3)OCO4)c3nc4ccccc4nc32)cc1OC` [Compound Z56872869], the “First screening IR (inhibition rate)” value worked out at 34% and the “Second screening IR (inhibition rate)” value was -24%.
